# Data taken from US6989390B2, “Amonafide salts” (priority 2002, dated 2006).
# What was measured:
# [1] = Minimum amount of water/ethanol (1.5/4 v/v) required to dissolve the crude salt at boil (recrystallization); assay type: physicochemical
# Text: For comparative purposes, between and among organic salts prepared in this manner and for the purposes of subsequent Example 3, Table 3, crude reaction products were recrystalized from water/ethanol (1.5/4 v/v per gram of salt) using the minimum amount of solvent to effect dissolution at boil.
# In the case of succinic acid, the organic acid was dispensed as a half-equivalent in order to generate mitonafide hemisuccinate. […] Crude product that was isolated from the hydrogenation reaction mixture was analyzed for purity by high pressure liquid chromatography (HPLC) according to the conditions described in Table 1 above. The crude product was recrystallized from water/ethanol (1.5/4 v/v) using the minimum amount of solvent required to dissolve the crude product at boil, which is shown in the last column of Table 3 for each salt. The recrystallized product was then analyzed for purity by HPLC.
# The purities of the crude salts were assessed by HPLC according to the conditions described in Table 1 above. The crude salts were then recrystallized from the minimum amount of water/ethanol (1.5/4 v/v) using the minimum amount of solvent required to dissolve the crude product at boil, which is shown in the last column of Table 3 for each salt. The resulting purified salts were again assessed for purity.
# The hydrochloride and methanesulfonic acid salts of amonafide were prepared according to U.S. Pat. No. 5,420,137. Exemplary procedures are as follows: 3 g of crude amonafide free base, obtained as described in the previous two paragraphs, above, were dissolved under reflux in 60 ml of virtually anhydrous ethanol. Subsequently 1 ml of 35% (1 equivalent, estimated) strength hydrochloric acid was added dropwise while shaking vigorously. After cooling, the resulting crystals were filtered off and washed with 10 ml of anhydrous ethanol. The methanesulfonic acid salt was obtained using the same procedure, but replacing hydrochloric acid with 0.8 ml of methanesulfonic acid. The purity was assessed by HPLC using the conditions described in Table 1. The isolated products were then recrystallized from water/ethanol (1.5/4 v/v) using the minimum amounts of solvent required to dissolve the crude product at boil, which are shown for each salt in Table 3. The resulting purified salts were again assessed for purity.
# The hydrochloride salt of amonafide was obtained by the method of Zee-Chang et al., U.S. Pat. No. 4,614,820. Exemplary conditions are as follows: a mixture of the hydrochloride salt of N-(dimethylaminoethyl)-3-nitro-1,8-naphthalimide and 10% palladium-on-charcoal in water was hydrogenated at room temperature under 40 lbs/in^2 of hydrogen for one hour. […] To the mixture was added 3 ml of concentrated hydrochloric acid. It was then filtered and the filtrate was evaporated to dryness under reduced pressure. The residue was triturated with 30 ml of absolute ethanol and filtered. The resulting solid was then washed with ether and dried. The purity was assessed by HPLC using the conditions described in Table 1. The crude product was then recrystallized from water/ethanol (1.5/4 v/v) using the minimum amount of solvent (40 mL/g) required to dissolve the crude product at boil. The resulting purified salts were again assessed for purity.
# H23 (Lung) = assay: Hollow Fiber in vivo anti-cancer assay; design: species or system mice
# Description: (§1) The in vivo activity was tested using the Hollow Fiber methodology developed by the National Cancer Institute: Developmental Therapeutics Branch for use in their antineoplastic agent screening program. Specifically, the anti-cancer activity of amonafide L-malate was tested by the following protocol.
# (§2) Polyvinylidene fluoride (PVDF) hollow fibers were used. The fibers were individually flushed and filled with 70% ethanol and incubated in 70% ethanol at room temperature for a minimum of 96 hour. Following three washes with deionized water, the fibers were filled with and placed into a pan of deionized water for sterilization by autoclaving. Then the fibers were stored in water at 4° C. until used.
# (§3) Mice were grouped into 4 groups, two control groups with 6 mice per group and 2 experimental groups with 3 mice per group.
# (§4) Anesthesia was induced in mice by ketamine/acepromazine/xylazine injected intraperitoneally (i.p.) For the intraperitoneal (i.p.) implants, a small incision was made through the skin and musculature of the dorsal abdominal wall, the fiber samples were inserted into the peritoneal cavity in a craniocaudal direction and the incision was closed with a skin staple. For subcutaneous (s.c.) implants, a small skin incision was made at the nape of the neck to allow insertion of an 11 gauge tumor implant trocar. The trocar, containing the hollow fiber samples, was inserted caudally through the subcutaneous tissues and the fibers were deposited during withdrawal of the trocar. The skin incision was closed with a skin staple. Each mouse was host of 6 samples, representing 3 tumor cells lines each of which was cultured in the 2 physiologic compartments (i.p. and s.c.).
# (§5) On the day following the last drug injection, the animals were sacrificed and the hollow fibers extracted. The hollow fibers were then subjected to the stable endpoint MTT assay as described in Example 5. The optical density of each sample is determined spectrophotometrically at 540 nm and the mean of each treatment group is calculated. The percent net growth for each cell line in each treatment group is calculated as described in Example 5 and compared to the percent net growth in the vehicle treated controls (Group B) using the formula below to determine the percent growth inhibition:
# (§6) % growth inhibition=(Net GrowthControl−Net GrowthTreated)/Net GrowthControl)*100
# MCF-7 (Breast) = assay: Hollow Fiber in vivo anti-cancer assay; design: species or system mice
# Description: as §1, §2, §3, §4, §5, §6
# COLO205 (Colorectal) = assay: Hollow Fiber in vivo anti-cancer assay; design: species or system mice
# Description: as §1, §2, §3, §4, §5, §6
# PC3 (Prostate) = assay: Hollow Fiber in vivo anti-cancer assay; design: species or system mice; conditions: for % Growth Inhibition: 29.4 mg/kg i.p. once daily days 3-8
# Description: as §1, §2, §3, §4, §5, §6
# MDA-231 (Breast) = assay: Hollow Fiber in vivo anti-cancer assay; design: species or system mice
# Description: as §1, §2, §3, §4, §5, §6
smiles,measurement,setting,value
CN(C)CCN1C(=O)c2cccc3cc(N)cc(c23)C1=O.O=C(O)C[C@H](O)C(=O)O [Amonafide Malate],Solvent,"[1]; minimum water/ethanol (1.5/4 v/v) to dissolve crude product at boil, salt made by the method in column 2",7.5 mL/g
same,"recrystallization volume for purification, malate compared with HCl",[1]; water/ethanol 1.5/4 v/v,5 times smaller
same,% Growth Inhibition,"H23 (Lung); H23, I.P. fibers, 15 mg/kg i.p. twice-daily",36%
same,% Growth Inhibition,"H23 (Lung); H23, I.P. fibers, 29 mg/kg i.p. twice-daily",47%
same,% Growth Inhibition,"H23 (Lung); H23, S.C. fibers, 15 mg/kg i.p. twice-daily",13%
same,% Growth Inhibition,"H23 (Lung); H23, S.C. fibers, 29 mg/kg i.p. twice-daily",27%
same,% Growth Inhibition,"MCF-7 (Breast); MCF-7, I.P. fibers, 15 mg/kg i.p. twice-daily",97%
same,% Growth Inhibition,"MCF-7 (Breast); MCF-7, I.P. fibers, 29 mg/kg i.p. twice-daily",124%
same,% Growth Inhibition,"MCF-7 (Breast); MCF-7, IP, 29.4 mg/kg i.p. once daily days 3-8",150.2%
same,% Growth Inhibition,"MCF-7 (Breast); MCF-7, S.C. fibers, 15 mg/kg i.p. twice-daily",83%
same,% Growth Inhibition,"MCF-7 (Breast); MCF-7, S.C. fibers, 29 mg/kg i.p. twice-daily",107%
same,% Growth Inhibition,"MCF-7 (Breast); MCF-7, SC, 29.4 mg/kg i.p. once daily days 3-8",116.1%
same,percent growth inhibition (text summary of Tables 6-8),"MCF-7 (Breast); MCF-7, above 100% indicates lethality for cancerous cells",above 100%
same,percent growth inhibition (text summary of Tables 6-8),COLO205 (Colorectal); COLO205 (colorectal cancer),Significant percent growth inhibition
same,% Growth Inhibition,"COLO205 (Colorectal); COLO205, I.P. fibers, 15 mg/kg i.p. twice-daily",82%
same,% Growth Inhibition,"COLO205 (Colorectal); COLO205, I.P. fibers, 29 mg/kg i.p. twice-daily",98%
same,% Growth Inhibition,"COLO205 (Colorectal); COLO205, IP, 29.4 mg/kg i.p. once daily days 3-8",84.6%
same,% Growth Inhibition,"COLO205 (Colorectal); COLO205, S.C. fibers, 15 mg/kg i.p. twice-daily",50%
same,% Growth Inhibition,"COLO205 (Colorectal); COLO205, S.C. fibers, 29 mg/kg i.p. twice-daily",76%
same,% Growth Inhibition,"COLO205 (Colorectal); COLO205, SC, 29.4 mg/kg i.p. once daily days 3-8",80.4%
same,% Growth Inhibition,"PC3 (Prostate); PC3, IP",71.6%
same,% Growth Inhibition,"PC3 (Prostate); PC3, SC",52.9%
same,percent growth inhibition (text summary of Tables 6-8),PC3 (Prostate); PC-3 (prostate),Significant percent growth inhibition
same,% Growth Inhibition,"MDA-231 (Breast); MDA-231, I.P. fibers, 15 mg/kg i.p. twice-daily",93%
same,% Growth Inhibition,"MDA-231 (Breast); MDA-231, I.P. fibers, 29 mg/kg i.p. twice-daily",108%
same,% Growth Inhibition,"MDA-231 (Breast); MDA-231, S.C. fibers, 15 mg/kg i.p. twice-daily",79%
same,% Growth Inhibition,"MDA-231 (Breast); MDA-231, S.C. fibers, 29 mg/kg i.p. twice-daily",113%
same,percent growth inhibition (text summary of Tables 6-8),"MDA-231 (Breast); MDA-231, above 100% indicates lethality for cancerous cells",above 100%
